Experimental data published in US20260132165A1, “MODIFIED NUCLEOSIDE ANALOGUE AND USE THEREOF, AND NUCLEOSIDE ANALOGUE-CONTAINING DOUBLE-STRANDED OLIGONUCLEOTIDE AND USE THEREOF” (RIGERNA THERAPEUTICS (BEIJING) CO., LTD., priority 2023, published 2026).

Assays:
target gene SOD1 [1] = experiment: Test Example 7: inhibitory activity of lipid conjugated siRNA sequences on SOD1 in mouse adipose and muscle tissues (tail vein injection); assay type: in vivo, C57BL/6j mice; settings: for inhibitory action on liver and kidney tissues: liver and kidney (non-target tissues), D28 and D49; for D 14 % Mean value of inhibition rate / D 28 % Mean value of inhibition rate / D 49 % Mean value of inhibition rate / Kidney D 14 % Mean value of inhibition rate / Kidney D 28 % Mean value of inhibition rate / Kidney D 49 % Mean value of inhibition rate / Liver D 14 % Mean value of inhibition rate / Liver D 28 % Mean value of inhibition rate / Liver D 49 % Mean value of inhibition rate: tail vein injection 5 mg/kg; for D 14 % Mean value of inhibition rate / inhibitory activity compared with the NM200 conjugated reference sequence RZ899076 / Kidney D 14 % Mean value of inhibition rate / Liver D 14 % Mean value of inhibition rate: D14; for D 28 % Mean value of inhibition rate / Kidney D 28 % Mean value of inhibition rate / Liver D 28 % Mean value of inhibition rate: D28; for inhibitory activity compared with Uhd conjugated reference sequence RZ899093 and NM200 conjugated reference sequence RZ899076: D14, D28 and D49; for Kidney D 14 % Mean value of inhibition rate / Kidney D 28 % Mean value of inhibition rate / Kidney D 49 % Mean value of inhibition rate: mouse kidney; for Liver D 14 % Mean value of inhibition rate / Liver D 28 % Mean value of inhibition rate / Liver D 49 % Mean value of inhibition rate: mouse liver
Procedure: (§1) RNA extraction: the above tissue samples were taken out from the RNAlater, and smashed for 60 s in Tissuelyser type II full-automatic tissue homogenizer, and total RNAs of various tissue samples were extracted using the full-automatic nucleic acid extraction instrument and the nucleic acid extraction kit from Zhejiang Hanwei Science and Technology Co. Ltd. according to methods described in instructions.
(§2) Reverse transcription reaction: 1 μg of the extracted total RNAs of the tissue samples were taken, and configured into 20 μL of reverse transcription system according to a method described in kit instructions by using a reverse transcription kit (Reverse Transcription System, A3500) from Promega Corporation and selecting Oligo (dT)15 reverse transcription primers, and the reverse transcription reaction was completed. After the reaction was ended, 80 μL of RNase-Free water was added into the reverse transcription system to provide cDNA solution for Real-time PCR detection.
(§3) Real-time PCR detection: 20 μL of Real-time PCR reaction system per PCR detection well was configured according to a method described in kit instructions using SYBR™ Select Master Mix (Catalog number: 4472908) reagent from ABI company. Each detection system contained 5 μL of cDNA template obtained from the above reverse transcription reaction, 10 μL of SYBR™ Select Master Mix, 0.5 μL of 10 μM upstream primers, 0.5 μL of 10 μM downstream primers, and 4 μL of RNase-Free H2O. The configured reaction system was subjected to Real-time PCR amplification on ABI StepOnePlus PCR instrument by a three-step method, wherein an amplification procedure was pre-denaturation at 95° C. for 10 min, then denaturation at 95° C. for 30 s, annealing at 60° C. for 30 s, and extension at 72° C. for 30 s; and processes of denaturation, annealing, and extension were repeated for 40 cycles. Gene expression differences were calculated by the ΔΔCt method after completion of the procedure.
(§4) In the real-time fluorescence quantitative PCR method, relative quantitative calculation of remaining expression level and inhibition rate of gene mRNA of interest in various test groups was performed by the ΔΔCt method, and the calculation method is as follows:
(§5) The present test example evaluated, by an evaluation method for inhibitory activity on a target gene in mice, the inhibitory activity of siRNA sequence RZ899090 with the sense strand with the NM073 conjugation at Position 4, siRNA sequence RZ899091 with the sense strand with the NM074 conjugation at Position 4, siRNA sequence RZ899078 with the sense strand with the NM202 conjugation at Position 6 and siRNA reference sequence RZ899093 with the sense strand with the Uhd conjugation at Position 4, and siRNA reference sequence RZ899076 with the sense strand with the NM200 conjugation at Position 4 on the target gene SOD1 of interest in mice. The above conjugation vectors were different in that NM073 was C18 aliphatic chain, NM074 was C20 aliphatic chain, and NM0202 and NM0200 were C22 aliphatic chains.
(§6) 6-8 Week-old C57BL/6j mice were randomly grouped by body weight, 15 per group, 6 groups in total. Mice in each group were dosed with the above siRNA conjugates by tail vein injection, with an administration dose of 5 mg/kg per mouse, and an administration volume of 150 μL. PBS control group was administered with the same volume of siRNA conjugate-free PBS solution. The day of administration was recorded as D0, and 5 mice in each group were sacrificed on D14, D28 and D49 after administration. Tissues such as paragonadal fat, left hind leg quadriceps muscle, heart, liver, and kidney were respectively taken and stored in the RNAlater. RNA extraction, reverse transcription, and real-time fluorescence quantitative detection were performed on various tissues according to the above method, and gene expression differences were calculated by the above ΔΔCt method.

target gene SOD1 [2] = experiment: Test Example 8: inhibitory activity on target gene SOD1 in adipose tissues in different parts of mice; assay type: in vivo, C57BL/6j mice; settings: D14; for Subcutaneous fat % Mean value of inhibition rate: abdominal subcutaneous fat; for Subcutaneous fat % Mean value of inhibition rate / Brown fat on back % Mean value of inhibition rate / Paragonadal fat % Mean value of inhibition rate: tail vein injection 5 mg/kg
Procedure: as §1, §2, §3, §4
as §5, with “4,” for “4, and”, “SOD1 in adipose tissues” for “SOD1”, “mice.” for “mice. The above conjugation vectors were different in that NM073 was C18 aliphatic chain, NM074 was C20 aliphatic chain, and NM0202 and NM0200 were C22 aliphatic chains.”
as §6, with “weight, 5” for “weight, 15”, “on D14” for “on D14, D28 and D49”, “administration. Paragonadal” for “administration. Tissues such as paragonadal”, “fat, abdominal subcutaneous fat,” for “fat, left hind leg quadriceps muscle, heart, liver,”, “and brown fat on back” for “and kidney”, “respectively taken.” for “respectively taken and stored in the RNAlater.”

[3] = mouse adipose tissues (paragonadal fat)
[4] = mouse adipose tissues (paragonadal fat), D49
[5] = mouse adipose tissues, tail vein 5 mg/kg
[6] = mouse heart tissues, tail vein 5 mg/kg
[7] = mouse skeletal muscle tissues (left hind leg quadriceps muscle)

| Substance | inhibitory action on liver and kidney tissues (target gene SOD1 [1]; tail vein 5 mg/kg) | D 14 % Mean value of inhibition rate (target gene SOD1 [1]; [3]) | D 28 % Mean value of inhibition rate (target gene SOD1 [1]; [3]) | D 49 % Mean value of inhibition rate (target gene SOD1 [1]; [4]) | inhibitory activity compared with the NM200 conjugated reference sequence RZ899076 (target gene SOD1 [1]; [5]) | inhibitory activity compared with Uhd conjugated reference sequence RZ899093 and NM200 conjugated reference sequence RZ899076 (target gene SOD1 [1]; [6]) | D 14 % Mean value of inhibition rate (target gene SOD1 [1]; mouse heart tissues) | D 28 % Mean value of inhibition rate (target gene SOD1 [1]; mouse heart tissues) | D 49 % Mean value of inhibition rate (target gene SOD1 [1]; mouse heart tissues, D49) | Kidney D 14 % Mean value of inhibition rate (target gene SOD1 [1]) | Kidney D 28 % Mean value of inhibition rate (target gene SOD1 [1]) | Kidney D 49 % Mean value of inhibition rate (target gene SOD1 [1]; D49) | Liver D 14 % Mean value of inhibition rate (target gene SOD1 [1]) | Liver D 28 % Mean value of inhibition rate (target gene SOD1 [1]) | Liver D 49 % Mean value of inhibition rate (target gene SOD1 [1]; D49) | D 14 % Mean value of inhibition rate (target gene SOD1 [1]; [7]) | D 28 % Mean value of inhibition rate (target gene SOD1 [1]; [7]) | inhibitory activity in mouse skeletal muscle tissues (target gene SOD1 [1]; tail vein 5 mg/kg) | Subcutaneous fat % Mean value of inhibition rate (target gene SOD1 [2]) | Brown fat on back % Mean value of inhibition rate (target gene SOD1 [2]) | other results |
| --- | --- | --- | --- | --- | --- | --- | --- | --- | --- | --- | --- | --- | --- | --- | --- | --- | --- | --- | --- | --- | --- |
| RZ899091: siRNA sequence with the sense strand with the NM074 (C20) conjugation at Position 4; SEQ ID NO: 16 / 23 (sense UUUNAAUCCUCACUCUAAA; antisense UUUAGAGUGAGGAUUAAAAUG; NM074 (C20) conjugate at sense position 4; modified_base 1..2 OTHER; 2'-methoxy and 5'-thiophosphate modified nucleotides; modified_base 3 OTHER; 2'-methoxy modified nucleotide; modified_base 4 OTHER; n is the synthetic nucleotide analog NM074 as described in the disclosure.; modified_base 5..6 OTHER; 2'-methoxy modified nucleotides; modified_base 7..10 OTHER; 2'-fluoro modified nucleotides; modified_base 11..19 OTHER; 2'-methoxy modified ; modified_base 1 OTHER; 2'-methoxy and 5'-thiovinylphosphonate modified nucleotide; modified_base 2 OTHER; 2'-fluoro and 5'-thiophosphate modified …) | no inhibitory action | 86.81% | 86.36% | 81.73% | on par | superior inhibitory activity | 87.44% | 82.78% | 81.89% | 31.71% | 3.50% | 9.97% | 49.04% | 13.03% | 7.59% | 69.80% | 72.24% | certain inhibitory activity | 67.17% | 80.97% | gene inhibitory effect compared with RZ899076 (target gene SOD1 [1]; mouse adipose tissues, tail vein 5 mg/kg, D49): superior gene inhibitory effect; D 49 % Mean value of inhibition rate (target gene SOD1 [1]; mouse skeletal muscle tissues (left hind leg quadriceps muscle), D49): 41.89%; inhibitory activity compared with the NM200 conjugated reference sequence RZ899076 (target gene SOD1 [2]; paragonadal fat and brown fat on back, tail vein 5 mg/kg): equivalent or superior inhibitory activity; Paragonadal fat % Mean value of inhibition rate (target gene SOD1 [2]): 75.20%; inhibitory action on the target gene compared with RZ899076 (target gene SOD1 [2]; subcutaneous fat, tail vein 5 mg/kg): substantially comparable |
| RZ899078: siRNA sequence with the sense strand with the NM202 (C22) conjugation at Position 6; SEQ ID NO: 20 / 24 (sense UUUUANUCCUCACUCUAAA; antisense UUUAGAGUGAGGAUUAAAAUG; NM202 (C22) conjugate at sense position 6; modified_base 1..2 OTHER; 2'-methoxy and 5'-thiophosphate modified nucleotides; modified_base 3..5 OTHER; 2'-methoxy modified nucleotides; modified_base 6 OTHER; n is the synthetic nucleotide analog NM202 as described in the disclosure.; modified_base 7..10 OTHER; 2'-fluoro modified nucleotides; modified_base 11..19 OTHER; modified_base 1 OTHER; 2'-methoxy and 5'-thiovinylphosphonate modified nucleotide; modified_base 2 OTHER; 2'-fluoro and 5'-thiophosphate modified nucleotide; modified_base 6 OTHER;) | no inhibitory action | 91.53% | 75.82% | 65.16% | on par | superior inhibitory activity | 83.53% | 79.52% | 63.42% | −7.92% | 1.46% | 2.03% | 20.63% | 15.46% | −11.54% | 71.63% | 69.78% | highest inhibitory activity in muscles | 71.42% | 67.27% | Paragonadal fat % Mean value of inhibition rate (target gene SOD1 [2]): 55.23% |
